Tests used:
[1] = molecular target: T1, Dimeric PK M2 (Homo sapiens, UniProt P14618); assay: Pyruvate kinase enzymatic assay (high PEP); format: cell-based; conditions: colorectal cancer cells
T1 construct: Activities of glycolytic enzymes measured in cytosolic fractions after treatment with HMGB1; endogenous in cells; host or cells: SW480, HCT116, HT29 cytosolic fractions; homogenates of human colon cancer tissue slices
Method: Enzymatic activities of respiratory chain complexes, glycolytic proteins and malic enzyme were determined in subcellular fractions as previously described (Kaminski, M. M. et al. T cell activation is driven by an ADP-dependent glucokinase linking enhanced glycolysis with mitochondrial reactive oxygen species generation. Cell reports 2, 1300-1315 (2012).Bruncko, M. et al. Naphthamidine urokinase plasminogen activator inhibitors with improved pharmacokinetic properties. Bioorganic & medicinal chemistry letters 15, 93-98, (2005)) using a computer-tuneable spectrophotometer (Spectramax Plus Microplate Reader, Molecular Devices; Sunny Vale, Calif., USA) operating in the dual wavelength mode; samples were analyzed in temperature-controlled 96-well plates in a final volume of 300 μl. Activity of ME1 was recorded in presence of increasing amounts of malic acid (0.02, 0.05, 0.1, 0.2, 0.5, 1, 2.5 mM). Vmax and Km were calculated using a Hanes-Woolf plot. In the presence of high substrate levels the Km for malic acid was similar in all three tested cell lines (SW480: 0.32 mM, HCT116: 0.30 mM, HT29: 0.31 mM). Vmax (mU/mg protein) values were 3.38 (SW480, 0.5-5.0 mM malic acid), 5.77 (HCT116, 0.5-5.0 mM malic acid) and 3.68 (HT29, 0.5-5.0 mM malic acid) and 1.68 (SW480, 0.02-0.2 mM malic acid), 3.24 (HCT116, 0.02-0.2 mM malic acid) and 1.89 (HT29, 0.02-0.2 mM malic acid). […]

[2] = tested on: pentose phosphate shunt; assay: Incorporation of 14C into RNA ribose from U-14C-labelled glucose; format: cell-based, human; conditions: HMGB1 80 nM, 24 h
Method: Lactate derived from the metabolism of ^13C6-D-glucose or ^13C5-glutamine was determined by comparing the CH3 group intensities of labeled and non-labeled lactate in NMR. Mitochondrial respiration was measured using an Oroboros 1 oxygraph system. Glycolysis was measured by monitoring the conversion of 5-^3H-Glucose to ^3H2O. Incorporation of ^14C into RNA ribose from U-^14C-labelled glucose was taken as glucose utilization in the pentose phosphate shunt. Enzymatic activities were determined in subcellular fractions as previously described^24.

[3] = tested on: glucose-6-phosphate; assay: Glucose-6-phosphate assay kit; format: cell-based, human; conditions: HMGB1-treated cells
Method: Glucose-6-phosphate levels in cells were measured using the Glucose-6-phosphate assay kit (Sigma) according to the manufacturer's protocol.

[4] = molecular target: PKM2 (Homo sapiens, UniProt P14618); assay: Ultrafiltration of the PK M2-HMGB1 complex; format: binding; conditions: 2 μM human PK M2 and 2 μM human HMGB1
Method: Ultrafiltration of the PK M2-HMGB1 complex: equimolar amounts of HMGB1 and PKM2 were mixed in a final volume of 300 μl and filtrated (14000 g, 4° C.) to a final volume of 15 μl in an Amicon Ultra 0.5 ml 30k device (Merck-Millipore, Darmstadt, Germany). The retentate was adjusted to the original volume after centrifugation. Then filtrate and retentate were analyzed by Western Blot. For controls HMGB1 and PKM2 were also analyzed alone. Pure HMGB1 (2 μM) suited as a negative control.

[5] = tested on: SW480 xenograft tumor; assay: Xenograft tumor growth in nude mice; format: in vivo, mouse; conditions: 10 μg rhHMGB1 daily intraperitoneal for 2 weeks
Method: For animal studies six-week-old female and male athymic CD1 nude mice (Charles River, n=40) were injected subcutaneously with 5×10^6 SW480 or HT29 cells in 100 μl PBS in the right flank using a 30-gauge needle. Treatment was started when tumors were palpable. Daily intraperitoneal injections at the contralateral side for 2 weeks were done with 10 μg rhHMGB1 in 500 μl PBS or PBS only (control group) and/or 12.5 mg/kg/injection L-DON (Ovejera, A. A., Houchens, D. P., Catane, R., Sheridan, M. A. & Muggia, F. M. Efficacy of 6-diazo-5-oxo-L-norleucine and N-[N-gamma-glutamyl-6-diazo-5-oxo-norleucinyl]-6-diazo-5-oxo-norleucine against experimental tumors in conventional and nude mice. Cancer research 39, 3220-3224 (1979).). Tumor volume was measured by a calliper using the ellipsoid formula (length×width×height×½) as described (Tomayko, M. M. & Reynolds, C. P. Determination of subcutaneous tumor size in athymic (nude) mice. Cancer Chemother Pharmacol 24, 148-154 (1989).). After 2 weeks of treatment the animals were sacrificed.

PKM2, sequence (P14618 whole entry): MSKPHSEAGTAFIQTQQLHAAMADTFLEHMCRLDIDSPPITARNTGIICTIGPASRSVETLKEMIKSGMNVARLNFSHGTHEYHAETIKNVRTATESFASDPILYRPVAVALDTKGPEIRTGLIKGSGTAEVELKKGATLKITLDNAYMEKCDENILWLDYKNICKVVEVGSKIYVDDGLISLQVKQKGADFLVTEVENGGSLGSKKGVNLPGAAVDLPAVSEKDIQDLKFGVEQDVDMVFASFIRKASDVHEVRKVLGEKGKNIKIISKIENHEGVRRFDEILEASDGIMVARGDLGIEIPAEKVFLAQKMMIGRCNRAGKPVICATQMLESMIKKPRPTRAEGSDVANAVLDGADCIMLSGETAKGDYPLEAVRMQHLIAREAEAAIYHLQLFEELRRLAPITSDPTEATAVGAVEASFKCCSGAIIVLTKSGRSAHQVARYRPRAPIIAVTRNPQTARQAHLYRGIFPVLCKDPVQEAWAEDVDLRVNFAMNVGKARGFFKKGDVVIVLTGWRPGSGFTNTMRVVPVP
T1 sequence (P14618 2-531 limits assumed): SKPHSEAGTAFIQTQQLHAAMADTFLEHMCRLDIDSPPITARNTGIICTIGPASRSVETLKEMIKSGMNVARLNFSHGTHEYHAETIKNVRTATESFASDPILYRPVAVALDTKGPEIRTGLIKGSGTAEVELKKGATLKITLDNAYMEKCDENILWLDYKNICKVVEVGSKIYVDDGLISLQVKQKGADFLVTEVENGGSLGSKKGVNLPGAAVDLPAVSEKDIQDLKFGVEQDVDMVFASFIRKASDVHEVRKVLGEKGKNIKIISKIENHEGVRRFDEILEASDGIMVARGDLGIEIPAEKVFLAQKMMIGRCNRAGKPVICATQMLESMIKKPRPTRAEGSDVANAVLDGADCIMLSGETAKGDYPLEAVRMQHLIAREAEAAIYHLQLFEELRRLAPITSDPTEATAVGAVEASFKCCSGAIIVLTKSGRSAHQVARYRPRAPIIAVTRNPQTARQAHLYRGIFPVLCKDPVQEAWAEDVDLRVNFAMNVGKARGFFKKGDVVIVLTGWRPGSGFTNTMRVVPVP

“HMGB1: recombinant human HMGB1 protein (Sigma-Aldrich); High Mobility Group Box 1 polypeptide, human, SEQ ID NO: 4” was tested, and the “Dimeric PK M2 activity” value [1] was “unchanged”, the “flux of glycolytic intermediates into the pentose phosphate shunt” value [2] was “increased flux” and the glucose-6-phosphate level [3] was “strong increase”. For the same substance, the “physical interaction with PK M2 in vitro” value [4] was “physically interacted” and the xenograft tumor growth [5] was “inhibited”.

Reference: patent publication US11274132B2, “Combined preparations of PKM2 modulators and HMGB1” (Ruprecht-Karls-Universität Heidelberg, priority 2015, dated 2022)
